The source of these data is patent publication US8507724B2 (priority 2008, dated 2013).

One may read the EC50 as the concentration needed to bring the measured effect to its halfway point.

The target in the assay is T1, α1 homomeric glycine receptors (Rattus norvegicus, UniProt P07727).
T1 construct: expressed in transfected cells; host or cells: HEK 293 (transient transfection by electroporation, cDNA in pCIS2 vector)
T1 sequence (P07727 29-457): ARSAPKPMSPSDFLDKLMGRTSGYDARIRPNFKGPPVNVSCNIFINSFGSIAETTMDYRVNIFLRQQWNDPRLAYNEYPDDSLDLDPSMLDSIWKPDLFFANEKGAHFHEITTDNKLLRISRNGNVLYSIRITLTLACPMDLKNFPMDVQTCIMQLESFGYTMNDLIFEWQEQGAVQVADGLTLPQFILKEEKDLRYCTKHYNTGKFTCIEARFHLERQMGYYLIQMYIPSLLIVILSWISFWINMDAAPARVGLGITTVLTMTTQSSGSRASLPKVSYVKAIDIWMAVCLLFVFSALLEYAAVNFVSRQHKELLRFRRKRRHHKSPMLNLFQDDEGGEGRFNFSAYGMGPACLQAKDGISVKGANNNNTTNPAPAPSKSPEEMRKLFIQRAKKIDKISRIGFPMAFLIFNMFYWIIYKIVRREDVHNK
Briefly: Whole-cell patch-clamp, Cl- current activated via α1 homomeric glycine receptors in transfected HEK 293 cells. In kind it is cell-based. As to the method: Cells were cultured in Dulbecco's modified Eagle's medium (DMEM, Biochrom, Berlin, Germany), supplemented with 10% fetal calf serum (FCS, Biochrom, Berlin, Germany), 100 U ml^−1 penicillin and 100 μg ml^−1 streptomycin at 37° C. in a 5% CO2/air incubator. […] For co-transfection of rat α1 glycine receptor subunits, the corresponding cDNA, each subcloned in the pCIS2 expression vector (Invitrogen, San Diego, USA), was added to the suspension. To visualize transfected cells, they were co-transfected with cDNA of green fluorescent protein (GFP 10 μg ml^−1). For transfection, we used an electroporation device by EquiBio (Kent, UK).
The compounds according to the present invention under investigation were prepared as 1 M stock solution in ethanol, light-protected and stored in glass vessels at −20° C. Concentrations were calculated from the amount injected into the glass vials. Drug-containing vials were vigorously vortexed for 60 min. Glycine and picrotoxin were dissolved directly in bath solution.
Patch electrodes contained [mM] KCl 140, MgCl2 2, EGTA 11, HEPES 10, glucose 10; the bath solution contained [mM]
A tight electrical seal of several GΩ formed between the cell membrane and a patch-clamp electrode allows inward currents due to agonist-induced channel activation to resolve in the pA range. Electrical resistance of the pipettes was around 5 MΩ, corresponding to a total access resistance in the whole-cell configuration of about 10 MΩ. The compounds according to the present invention under investigation were applied to the cells via a smooth liquid filament achieved with a single outflow (glass tubing 0.15 mm inner diameter) connected to a piezo crystal. The cells were placed at the interface between this filament and the continuously flowing background solution. When a voltage pulse was applied to the piezo, the tube was moved up and down onto or away from the cell under investigation. Correct positioning of the cell in respect to the liquid filament was ensured applying a saturating (1000 μM) glycine pulse before and after each test experiment. Care was taken to ensure that the amplitude and the shape of the glycine-activated current had stabilized before proceeding with the experiment. Test solution and glycine (1000 μM) were applied via the same glass-polytetrafluoroethylen perfusion system, but from separate reservoirs. The contents of these reservoirs were mixed at a junction immediately before entering the superfusion chamber.
The compounds under test were applied alone in order to determine their direct agonistic effects. A new cell was used for each compound and each protocol, at least three different experiments were performed for each setting. The amount of the diluent ethanol corresponding to the highest compound concentration used was 34 000 μM.
For data acquisition and further analysis the inventors used the Axopatch 200B amplifier in combination with pClamp6 software (Axon Instruments, Union City, Calif., USA). Currents were filtered at 2 kHz. Fitting procedures were performed using a non-linear least-squares Marquardt-Levenberg algorithm. Details are provided in the appropriate figure legends or in the results section.
Activated currents were normalized to their own maximum response. The dose-response-curves were fitted according to (Inorm=[1+(EC50/[C])^nH]^−1), where Inorm is the current induced directly by the respective concentration [C] of the compound, normalized to the maximum inward current.
For orientation: The patch-clamp technique gives a direct electrical read-out from membranes.

Setting [1] is: EC50 (nM), α1 homomer, initial tests, Hill fit to normalised response, rat α1 receptors in HEK 293.
The mark [2] stands for this setting: initial tests, Hill fit to normalised response.

With `CC(C)c1cc(NC(=O)C(F)(F)F)cc(C(C)C)c1O` [4-trifluoroacetamide-propofol, 4-Trifluoroacetamide-propofol], the EC50 under setting [1] came out at 0.3 nM and the EC50 (EC50, further series of tests (later tests)) amounted to 0.11 nM.

As to `CC(C)c1cc(-c2ccc(C(C)(C)C)cc2)cc(C(C)C)c1O` [4-(p-tert-butylphenyl)-propofol], the EC50 under setting [1] is 0.05 ± 0.03 nM. The “nH (Hill coefficient), α1 homomer” value under setting [2] was 2.0 ± 0.4.

On to `CC(C)c1cc(-c2ccc(-c3ccccc3)cc2)cc(C(C)C)c1O` [4-(p-biphenyl)-propofol], for which, under setting [1], the EC50 stood at 0.8 ± 0.2 nM. Moreover, the “nH (Hill coefficient), α1 homomer” value under setting [2] came out at 2.6 ± 1.2.
